Source: patent US20100144712A1 (priority 2007, published 2010)
Values after ≈ are worked out from the molar mass of the structure shown.

Legend:
Format in all cases: cell-based
[1] = tested on: Candida albican ATCC 90873; assay: In vitro antifungal activity (MIC80), Candida albican ATCC 90873; conditions: Candida, ATCC90873; Table 2, ATCC 90873; read-out: Minimal inhibitory concentration (MIC80)
Protocol: (§1) In vitro antifungal activities of the inventive antifungal compounds were evaluated using test strains including Candida albican (ATCC 90873, 204276, 62342, 64124, 64550, 96901, MYA-573, MYA-574, MYA-575, MYA-576, MYA-1003) and Aspergillus fumigatus (ATCC 16424). Test samples and positive control samples were prepared by dissolving the inventive compounds and comparative compounds, i.e., amphotericin B, fluconazole and itraconazole, in DMSO, respectively, and each successively diluted with medium to obtain test and positive control solutions having test compound concentrations of 0.125 μg/ml to a maximum concentration not generating turbidity. Minimal inhibitory concentration (MIC80) of each compound was determined as the lowest concentration of the test compounds required to reduce growth by 80% relative to a control strain not treated.
(§2) 1) Test strain: Candida albican ATCC 90873, 204276, 62342, 64124, 64550, 96901, MYA-573, MYA-574, MYA-575, MYA-576, MYA-1003, and Aspergillus fumigatus ATCC 16424 were commercially obtained from The American Type Culture Collection (ATCC) and subcultured in CHEMON Co. Ltd. (amphotericin B was commercially purchased from Sigma, and fluconazole and itraconazole were prepared according to methods described in British Patent No. 2,099,818; and U.S. Pat. No. 4,267,179, respectively).
(§3) 2) Medium and culture condition: Candida albican was cultured in Sabourad Dextrose Agar, YM Agar or Potato Dextrose Agar according to ATCC information at a temperature of 37° C., 35° C., 30° C. or 25° C. Aspergillus fumigatus was cultured in Malt Extract Agar or Potato Dextrose Agar at a temperature ranging from 24 to 27° C.
(§4) 3) Preparation of test samples: the inventive compounds and comparative compounds were each diluted with DMSO to obtain 1 to 2 ml of a test sample in a concentration of 100-folds of the determining maximum concentration (256 μg/ml).
(§5) The test samples were each successively diluted with RPMI 1640 to obtain test solutions having concentrations of […] in a 12×75 mm sterilized disposable culture tube. The final concentration of DMSO was adjusted to […] (v/v).
(§6) 5) Preparation of strain solution and inoculation
(§7) Candida albican strains were each subcultured in Sabourad Dextrose Agar, YM Agar or Potato Dextrose Agar medium at 35° C. for 2˜3 days. In the case of yeasts, a single colony was taken from prominent colonies and suspended in 0.85% sterile physiological saline solution and the turbidity of the suspension was adjusted to 80˜82% at 530 nm, and then diluted 50-fold with RPMI 1640 medium to 1.0×10^3˜5.0×10^3 CFU/ml. The turbidity of fungi was adjusted to 80˜82% and the suspension was diluted 50-fold to […]. Aspergillus fumigatus strains were subcultured in Malt Extract Agar for 7˜10 days, and a single colony was taken from prominent colonies and suspended in 0.85% sterile physiological saline solution and the suspension was adjusted to 0.108 at 530 nm, and then diluted 1000-fold with RPMI 1640 medium to 0.4×10^2˜5×10^4 CFU/ml. The turbidity of fungi was adjusted to 80˜82% and the suspension was diluted 50-fold to 0.4102˜0.5104 CFU/ml.
(§8) The strain solutions thus obtained were each seeded into a sterilized 96-well microplate, 0.1 ml of each test solution were added thereto, and […] of alamarblue was treated to each well (Biosource, #DAL1100). This procedure was repeated 2 times.
(§9) Minimal inhibitory concentration (MIC80) of each compound was determined as the lowest concentration of the test compounds required to reduce growth by 80% relative to a control strain not treated.

[2] = tested on: Candida albican ATCC 96901; assay: In vitro antifungal activity (MIC80), Candida albican ATCC 96901; conditions: Candida, ATCC96901; Table 2, ATCC 96901; read-out: Minimal inhibitory concentration (MIC80)
Protocol: as §1, §2, §3, §4, §5, §6, §7, §8, §9

[3] = tested on: Candida albican ATCC MYA-1003; assay: In vitro antifungal activity (MIC80), Candida albican ATCC MYA-1003; conditions: Candida; Table 2, MYA 1003; read-out: Minimal inhibitory concentration (MIC80)
Protocol: as §1, §2, §3, §4, §5, §6, §7, §8, §9

[4] = tested on: Candida albican ATCC 62342; assay: In vitro antifungal activity (MIC80), Candida albican ATCC 62342; conditions: Candida, ATCC62342; Table 2, 62342; read-out: Minimal inhibitory concentration (MIC80)
Protocol: as §1, §2, §3, §4, §5, §6, §7, §8, §9

[5] = tested on: Candida albican ATCC 64124; assay: In vitro antifungal activity (MIC80), Candida albican ATCC 64124; conditions: Candida, ATCC64124; Table 2, 64124; read-out: Minimal inhibitory concentration (MIC80)
Protocol: as §1, §2, §3, §4, §5, §6, §7, §8, §9

[6] = tested on: Candida albican ATCC 64550; assay: In vitro antifungal activity (MIC80), Candida albican ATCC 64550; conditions: Candida, ATCC64550; Table 2, 64550; read-out: Minimal inhibitory concentration (MIC80)
Protocol: as §1, §2, §3, §4, §5, §6, §7, §8, §9

[7] = tested on: Candida albican ATCC MYA-573; assay: In vitro antifungal activity (MIC80), Candida albican ATCC MYA-573; conditions: Candida; Table 2, MYA 573; read-out: Minimal inhibitory concentration (MIC80)
Protocol: as §1, §2, §3, §4, §5, §6, §7, §8, §9

[8] = tested on: Candida albican ATCC MYA-574; assay: In vitro antifungal activity (MIC80), Candida albican ATCC MYA-574; conditions: Candida; Table 2, MYA 574; read-out: Minimal inhibitory concentration (MIC80)
Protocol: as §1, §2, §3, §4, §5, §6, §7, §8, §9

[9] = tested on: Candida albican ATCC MYA-575; assay: In vitro antifungal activity (MIC80), Candida albican ATCC MYA-575; conditions: Candida; Table 2, MYA 575; read-out: Minimal inhibitory concentration (MIC80)
Protocol: as §1, §2, §3, §4, §5, §6, §7, §8, §9

[10] = tested on: Candida albican ATCC MYA-576; assay: In vitro antifungal activity (MIC80), Candida albican ATCC MYA-576; conditions: Candida; Table 2, MYA 576; read-out: Minimal inhibitory concentration (MIC80)
Protocol: as §1, §2, §3, §4, §5, §6, §7, §8, §9

SMILES | MIC80 [1] [µg/mL] | MIC80 [2] [µg/mL] | MIC80 [3] [µg/mL] | MIC80 [4] [µg/mL] | MIC80 [5] [µg/mL] | MIC80 [6] [µg/mL] | MIC80 [7] [µg/mL] | MIC80 [8] [µg/mL] | MIC80 [9] [µg/mL] | MIC80 [10] [µg/mL]
C[C@@H](N1CCN(c2ccc(OCc3cccs3)nc2)CC1)[C@](O)(Cn1cncn1)c1ccc(F)cc1F [Example 35, (2R,3R)-2-(2,4-difluorophenyl)-3-(4-(6-(thiophen-2-ylmethoxy)pyridin-3-yl)piperazin-1-yl)-1-(1H-1,2,4-triazol-1-yl)butan-2-ol] | 0.125 (≈ 0.237 µM) | > 128 | > 128 | 0.5 (≈ 0.949 µM) | 8 (≈ 15.2 µM) | 1 (≈ 1.9 µM) | 0.5 (≈ 0.949 µM) | 1 (≈ 1.9 µM) | 0.125 (≈ 0.237 µM) | 0.125 (≈ 0.237 µM)
CC(N1CCN(c2ccc(N(C)CCc3cccs3)nc2)CC1)C(O)(Cn1cncn1)c1ccc(F)cc1F (stereo not drawn) [Example 37] | 0.125 (≈ 0.226 µM) | > 128 | > 128 | 1 (≈ 1.81 µM) | 32 (≈ 57.8 µM) | 4 (≈ 7.22 µM) | 1 (≈ 1.81 µM) | 2 (≈ 3.61 µM) | 0.5 (≈ 0.903 µM) | 0.5 (≈ 0.903 µM)
CC(N1CCCN(c2ccc(C#N)nc2)CC1)C(O)(Cn1cncn1)c1ccc(F)cc1F (stereo not drawn) [Example 39] | 0.125 (≈ 0.276 µM) | 32 (≈ 70.6 µM) | 16 (≈ 35.3 µM) | 4 (≈ 8.82 µM) | 128 (≈ 282 µM) | 2 (≈ 4.41 µM) | 1 (≈ 2.21 µM) | 2 (≈ 4.41 µM) | 0.125 (≈ 0.276 µM) | 0.125 (≈ 0.276 µM)
C[C@@H](N1CCCN(c2ccc3ccccc3n2)CC1)[C@](O)(Cn1cncn1)c1ccc(F)cc1F [Example 40, (2R,3R)-2-(2,4-difluorophenyl)-3-(4-(quinolin-2-yl)-1,4-diazepan-1-yl)-1-(1H-1,2,4-triazol-1-yl)butan-2-ol] | 0.125 (≈ 0.261 µM) | 16 (≈ 33.4 µM) | > 128 | 0.25 (≈ 0.522 µM) | 8 (≈ 16.7 µM) | 2 (≈ 4.18 µM) | 0.5 (≈ 1.04 µM) | 2 (≈ 4.18 µM) | 0.125 (≈ 0.261 µM) | 0.125 (≈ 0.261 µM)

Second part, the compound after the results:

MIC80 [1] [µg/mL] | MIC80 [2] [µg/mL] | MIC80 [3] [µg/mL] | MIC80 [4] [µg/mL] | MIC80 [5] [µg/mL] | MIC80 [6] [µg/mL] | MIC80 [7] [µg/mL] | MIC80 [8] [µg/mL] | MIC80 [9] [µg/mL] | MIC80 [10] [µg/mL] | SMILES
0.125 (≈ 0.23 µM) | 32 (≈ 58.9 µM) | 128 (≈ 235 µM) | 0.5 (≈ 0.92 µM) | 32 (≈ 58.9 µM) | 2 (≈ 3.68 µM) | 2 (≈ 3.68 µM) | 2 (≈ 3.68 µM) | 0.125 (≈ 0.23 µM) | 0.125 (≈ 0.23 µM) | C[C@@H](N1CCN(c2ccc(OCCN3CCOCC3)nc2)CC1)[C@](O)(Cn1cncn1)c1ccc(F)cc1F [Example 34, (2R,3R)-2-(2,4-difluorophenyl)-3-(4-(6-(2-morpholinoethoxy)pyridin-3-yl)piperazin-1-yl)-1-(1H-1,2,4-triazol-1-yl)butan-2-ol]
2 (≈ 3.5 µM) | 16 (≈ 28 µM) | 128 (≈ 224 µM) | 4 (≈ 7.01 µM) | 128 (≈ 224 µM) | 16 (≈ 28 µM) | 8 (≈ 14 µM) | 8 (≈ 14 µM) | 2 (≈ 3.5 µM) | 4 (≈ 7.01 µM) | CC(N1CCN(c2ccc(N(C)CCCN3CCOCC3)nc2)CC1)C(O)(Cn1cncn1)c1ccc(F)cc1F (stereo not drawn) [Example 36]
